Measurements taken from patent publication US12662489B2 (Sitryx Therapeutics Limited, priority 2023, dated 2026).

Legend:
[1] = target: T1, MTHFD1 recombinant human enzyme (Homo sapiens, UniProt P11586); assay: MTHFD1 inhibition assay (NAD(P)H-Glo luminescence); conditions: MTHFD1 IC50, recombinant human enzyme 200 nM, NADP, band
T1 sequence (P11586 2-291 limits assumed): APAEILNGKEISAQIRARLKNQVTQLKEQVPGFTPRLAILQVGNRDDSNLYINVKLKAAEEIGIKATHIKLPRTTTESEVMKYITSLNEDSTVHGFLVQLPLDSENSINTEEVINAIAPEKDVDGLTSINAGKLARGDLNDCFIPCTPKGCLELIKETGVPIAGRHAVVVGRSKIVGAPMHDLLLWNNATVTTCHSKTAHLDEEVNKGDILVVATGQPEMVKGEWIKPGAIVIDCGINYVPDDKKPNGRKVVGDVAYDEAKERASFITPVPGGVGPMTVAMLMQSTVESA

[2] = target: T2, MTHFD2 recombinant human enzyme (Homo sapiens, UniProt P13995); assay: MTHFD2 inhibition assay (NAD(P)H-Glo luminescence); conditions: for MTHFD1/MTHFD2 IC50 ratio: selectivity of MTHFD2 inhibition over MTHFD1, band
T2 sequence (P13995 36-350): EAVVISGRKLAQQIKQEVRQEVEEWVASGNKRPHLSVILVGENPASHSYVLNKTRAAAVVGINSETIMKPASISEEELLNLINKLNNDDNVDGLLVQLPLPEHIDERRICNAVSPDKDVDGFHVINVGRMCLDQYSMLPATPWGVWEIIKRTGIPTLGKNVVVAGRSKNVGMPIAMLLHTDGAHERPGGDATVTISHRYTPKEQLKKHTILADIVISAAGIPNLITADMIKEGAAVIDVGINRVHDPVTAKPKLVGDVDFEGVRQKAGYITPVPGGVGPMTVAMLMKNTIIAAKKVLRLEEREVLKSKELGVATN

human CD4+ T cells = assay: Human CD4+ T-cell proliferation assay (CFSE, CD3/28 beads); conditions: read-out: Proliferation IC50

Row | Structure (SMILES) | IC50 [1] | IC50 [2] | MTHFD1/MTHFD2 IC50 ratio [2] | IC50 (human CD4+ T cells)
1 | COC[C@H]1CN(c2cc(C)c3c4c(c(=O)oc3c2C)CN(C(=O)c2cc(N(C)C)c(C(=O)NS(=O)(=O)N3C5CCC3CC5)cc2F)CC4)CCN1C [Example 255, (R)-N-((7-azabicyclo[2.2.1]heptan-7-yl)sulfonyl)-2-(dimethylamino)-5-fluoro-4-(8-(3-(methoxymethyl)-4-methylpiperazin-1-yl)-7,10-dimethyl-5-oxo-1,3,4,5-tetrahydro-2H-chromeno[3,4-c]pyridine-3-carbonyl)benzamide] | 1000 to 5000 nM | 1 to 10 nM | J (>30) | 10 to 30 nM
2 | COC[C@H]1CN(c2cc(C)c3c4c(c(=O)oc3c2C)CN(C(=O)c2ccc(C(=O)NS(=O)(=O)N3C5CCC3CC5)c(OC)c2F)CC4)CCN1C [Example 157, (R)-N-((7-azabicyclo[2.2.1]heptan-7-yl)sulfonyl)-3-fluoro-2-methoxy-4-(8-(3-(methoxymethyl)-4-methylpiperazin-1-yl)-7,10-dimethyl-5-oxo-1,3,4,5-tetrahydro-2H-chromeno[3,4-c]pyridine-3-carbonyl)benzamide] | 100 to 1000 nM | 10 to 100 nM | H (>9.0 to 30) | 30 to 100 nM
3 | CCc1cc(N2CCN(C)[C@@H](COC)C2)c(C)c2oc(=O)c3c(c12)CCN(C(=O)c1cc(N(C)C)c(C(=O)NS(=O)(=O)N2CCCC2)cc1F)C3 [Example 245, (R)-2-(dimethylamino)-4-(10-ethyl-8-(3-(methoxymethyl)-4-methylpiperazin-1-yl)-7-methyl-5-oxo-1,3,4,5-tetrahydro-2H-chromeno[3,4-c]pyridine-3-carbonyl)-5-fluoro-N-(pyrrolidin-1-ylsulfonyl)benzamide] | 1000 to 5000 nM | 1 to 10 nM | J (>30) | 30 to 100 nM
4 | COC[C@H]1CN(c2cc(Cl)c3c4c(c(=O)oc3c2C)CN(C(=O)c2cc(N(C)C)c(C(=O)NS(=O)(=O)N3C5CCC3COC5)cc2F)CC4)CCN1C [Example 322, N-((3-oxa-8-azabicyclo[3.2. 1]octan-8-yl)sulfonyl)-4-(10-chloro-8-((R)-3-(methoxymethyl)-4-methylpiperazin-1-yl)-7-methyl-5-oxo-1,3,4,5-tetrahydro-2H-chromeno[3,4-c]pyridine-3-carbonyl)-2-(dimethylamino)-5-fluorobenzamide] | 1000 to 5000 nM | 1 to 10 nM | J (>30) | 30 to 100 nM
5 | COC[C@H]1CN(c2cc(C)c3c4c(c(=O)oc3c2C)CN(C(=O)c2cc(OC3CCCC3)c(C(=O)NS(=O)(=O)C3(C)CC3)c(C(F)(F)F)c2)CC4)CCN1C [Example 128, (R)-2-(cyclopentyloxy)-4-(8-(3-(methoxymethyl)-4-methylpiperazin-1-yl)-7,10-dimethyl-5-oxo-1,3,4,5-tetrahydro-2H-chromeno[3,4-c]pyridine-3-carbonyl)-N-((1-methylcyclopropyl)sulfonyl)-6-(trifluoromethyl)benzamide] | 1000 to 5000 nM | 10 to 100 nM | H (>9.0 to 30) | 1000 to 5000 nM
6 | COC[C@H]1CN(c2ccc3c4c(c(=O)oc3c2C)CN(C(=O)c2ccc(C(=O)NS(=O)(=O)N(C)C)c(OC3CCC3)c2F)CC4)CCN1C [Example 50, (R)-2-cyclobutoxy-N-(N,N-dimethylsulfamoyl)-3-fluoro-4-(8-(3-(methoxymethyl)-4-methylpiperazin-1-yl)-7-methyl-5-oxo-1,3,4,5-tetrahydro-2H-chromeno[3,4-c]pyridine-3-carbonyl)benzamide] | 1 to 10 nM | 1 to 10 nM | F (<3) | 1 to 10 nM
7 | COC[C@H]1CN(c2cc(C)c3c4c(c(=O)oc3c2C)CN(C(=O)c2cc(N(C)C)c(C(=O)NS(=O)(=O)N3C5CCC3COC5)cc2F)CC4)CCN1C [Example 256, N-((3-oxa-8-azabicyclo[3.2.1]octan-8-yl)sulfonyl)-2-(dimethylamino)-5-fluoro-4-(8-((R)-3-(methoxymethyl)-4-methylpiperazin-1-yl)-7,10-dimethyl-5-oxo-1,3,4,5-tetrahydro-2H-chromeno[3,4-c]pyridine-3-carbonyl)benzamide] | 1000 to 5000 nM | 1 to 10 nM | J (>30) | 10 to 30 nM
8 | COC[C@H]1CN(c2cc(C)c3c4c(c(=O)oc3c2C)CN(C(=O)c2ccc(C(=O)NS(=O)(=O)N3CCCC3)c(N3CCC(F)(F)C3)c2)CC4)CCN1C [Example 92, (R)-2-(3,3-difluoropyrrolidin-1-yl)-4-(8-(3-(methoxymethyl)-4-methylpiperazin-1-yl)-7,10-dimethyl-5-oxo-1,3,4,5-tetrahydro-2H-chromeno[3,4-c]pyridine-3-carbonyl)-N-(pyrrolidin-1-ylsulfonyl)benzamide] | 10 to 100 nM | 1 to 10 nM | H (>9.0 to 30) | 
9 | COC[C@H]1CN(c2cc(C)c3c4c(c(=O)oc3c2C)CN(C(=O)c2ccc(C(=O)NS(=O)(=O)N(C)C)c(OC3C[C@@H]5C[C@@H]5C3)c2)CC4)CCN1C (mixture of isomers) [Example 108, 2-(bicyclo[3.1.0]hexan-3-yloxy)-N-(N,N-dimethylsulfamoyl)-4-(8-((R)-3-(methoxymethyl)-4-methylpiperazin-1-yl)-7,10-dimethyl-5-oxo-1,3,4,5-tetrahydro-2H-chromeno[3,4-c]pyridine-3-carbonyl)benzamide] | 10 to 100 nM | 10 to 100 nM | F (<3) | 

Now from value to compound, other results behind:

Row | IC50 [1] | IC50 [2] | MTHFD1/MTHFD2 IC50 ratio [2] | Structure (SMILES) | IC50 (human CD4+ T cells)
10 | 100 to 1000 nM | 1 to 10 nM | J (>30) | COC[C@H]1CN(c2cc(Cl)c3c4c(c(=O)oc3c2C)CN(C(=O)c2cc(N(C)C)c(C(=O)NS(=O)(=O)N3CC[C@@H](F)C3)cc2F)CC4)CCN1C [Example 303, 4-(10-chloro-8-((R)-3-(methoxymethyl)-4-methylpiperazin-1-yl)-7-methyl-5-oxo-1,3,4,5-tetrahydro-2H-chromeno[3,4-c]pyridine-3-carbonyl)-2-(dimethylamino)-5-fluoro-N-(((R)-3-fluoropyrrolidin-1-yl)sulfonyl)benzamide] | 10 to 30 nM
11 | 100 to 1000 nM | 10 to 100 nM | J (>30) | CCOc1cc(C(=O)N2CCc3c(c(=O)oc4c(C)c(N5CCN(C)[C@@H](COC)C5)cc(C)c34)C2)c(Cl)cc1C(=O)NS(=O)(=O)N1CCCC1 [Example 330, (R)-5-chloro-2-ethoxy-4-(8-(3-(methoxymethyl)-4-methylpiperazin-1-yl)-7,10-dimethyl-5-oxo-1,3,4,5-tetrahydro-2H-chromeno[3,4-c]pyridine-3-carbonyl)-N-(pyrrolidin-1-ylsulfonyl)benzamide] | 100 to 1000 nM
12 | 1000 to 5000 nM | 10 to 100 nM | J (>30) | COC[C@H]1CN(c2cc(Cl)c3c4c(c(=O)oc3c2C)CN(C(=O)c2cc(F)c(C(=O)NS(=O)(=O)N3CCCC3)cc2OC)CC4)CCN1C [Example 319, (R)-4-(10-chloro-8-(3-(methoxymethyl)-4-methylpiperazin-1-yl)-7-methyl-5-oxo-1,3,4,5-tetrahydro-2H-chromeno[3,4-c]pyridine-3-carbonyl)-2-fluoro-5-methoxy-N-(pyrrolidin-1-ylsulfonyl)benzamide] | 100 to 1000 nM
13 | 1000 to 5000 nM | 1 to 10 nM | J (>30) | COC[C@H]1CN(c2cc(C)c3c4c(c(=O)oc3c2C)CN(C(=O)c2cc(OC)c(C(=O)NS(=O)(=O)N3CCCC3)cc2Cl)CC4)CCN1C [Example 329, (R)-5-chloro-2-methoxy-4-(8-(3-(methoxymethyl)-4-methylpiperazin-1-yl)-7,10-dimethyl-5-oxo-1,3,4,5-tetrahydro-2H-chromeno[3,4-c]pyridine-3-carbonyl)-N-(pyrrolidin-1-ylsulfonyl)benzamide] | 100 to 1000 nM
14 | 100 to 1000 nM | 10 to 100 nM | H (>9.0 to 30) | COC[C@H]1CN(c2cc(C)c3c4c(c(=O)oc3c2C)CN(C(=O)c2cc(N(C)C)c(C(=O)NS(=O)(=O)N3CCC[C@H](OC)C3)cc2F)CC4)CCN1C [Example 281, 2-(dimethylamino)-5-fluoro-4-(8-((R)-3-(methoxymethyl)-4-methylpiperazin-1-yl)-7,10-dimethyl-5-oxo-1,3,4,5-tetrahydro-2H-chromeno[3,4-c]pyridine-3-carbonyl)-N-(((S)-3-methoxypiperidin-1-yl)sulfonyl)benzamide] | 1 to 10 nM
15 | 100 to 1000 nM | 1 to 10 nM | J (>30) | COC[C@H]1CN(c2cc(C)c3c4c(c(=O)oc3c2C)CN(C(=O)c2cc(N(C)C)c(C(=O)NS(=O)(=O)N3CC5CC5C3)cc2F)CC4)CCN1C (stereo partly drawn) [Example 315, N-((3-azabicyclo[3.1.0]hexan-3-yl)sulfonyl)-2-(dimethylamino)-5-fluoro-4-(8-((R)-3-(methoxymethyl)-4-methylpiperazin-1-yl)-7,10-dimethyl-5-oxo-1,3,4,5-tetrahydro-2H-chromeno[3,4-c]pyridine-3-carbonyl)benzamide] | 1 to 10 nM
